Consider twelve compounds from PubChem BioAssay (NCI).

Holding throughout (test): NCI-60 cell line screen, 48 h
Assay [1] has as its system CAKI-1 renal.
In assay [2] the test system is CCRF-CEM leukemia.
For assay [3], the system named is HCT-15 colon.
For assay [4], the system named is HOP-92 NSCLC.
Assay [5] has as its system K-562 leukemia.
The test system of assay [6] is NCI-H23 lung.
Assay [7] deals with SK-MEL-28 melanoma.
The test system of assay [8] is SK-MEL-5 melanoma.
Assay [9] concerns PC-3 prostate.

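Following 48 hours of exposure in 96-well plates, responses at five concentrations were used to interpolate endpoints linearly. The concentration for 50% growth inhibition is given as GI50. TGI denotes the concentration required for complete inhibition of growth.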 Bounds are passed on as bounds.

Take `O=C(OCc1ccccc1)C(Cc1ccccc1)N(Cc1ccccc1)Cc1ccccc1` (configuration not stated): the TGI in assay [1], in [2], in assay [3], in assay [4], in assay [5] and in assay [6] was above 100 µM throughout. The TGI in assay [7] and in assay [8] was above 100 µM in each case.
With `O=C1CCCc2cc3c(cc21)CC1(C3)Cc2ccc3c(c2C1)C(=O)CCC3` (configuration not stated), the TGI in assay [1] was above 100 µM; in [2], 58.8 µM; in assay [3], above 100 µM; in assay [4] it was above 100 µM; in assay [5] it was above 100 µM; in [6], above 100 µM. In addition, the figures for the TGI in assay [9], in [7] and in [8] were above 100 µM, 80.6 µM and 7.66 µM, respectively.
With `CCN1C(=O)N(CC)C2Nn3c(s/c(=C4\C(=O)N(C)c5ccccc54)c3=O)=NC21` (configuration not stated), the GI50 is 1.05 µM in assay [1]; 3.3 µM in assay [2]; 1.27 µM in assay [3]; 69.5 µM in assay [4]; 0.727 µM in assay [5]; 3.38 µM in [6]. In addition, the GI50 in assay [9] is 3.52 µM; in assay [7] it was 6.45 µM; in assay [8] it was 4.61 µM. The TGI in assay [1], in [2], in assay [3], in assay [4], in [5] and in [6] was above 100 µM in each case. For the same compound, the TGI in assay [9], in assay [7] and in assay [8] was above 100 µM each time.
Consider `COc1cc(CNc2nc3cc(C(F)(F)F)ccc3nc2-c2ccccc2)cc(OC)c1OC`, for which the TGI is above 100 µM in assay [1]; above 100 µM in [2]; 56 µM in assay [3]; above 100 µM in assay [5]; above 100 µM in assay [6]; above 100 µM in assay [7]. For the same compound, the TGI in assay [8] is 73.3 µM.
As for `COc1ccccc1N1CCN(CCCNC(=O)c2cc(Cl)c(N)c(Cl)c2)CC1`, the TGI in assay [2] was above 100 µM; in assay [3], above 100 µM; in assay [4] it was 31.4 µM; in assay [6] it was above 100 µM; in assay [7] it was above 100 µM; in [8], 33.2 µM.
As to `CC(C)(C)C(=O)C(Cc1ccccc1)C(=O)C(C)(C)C`, the TGI in assay [1], in assay [2], in assay [3], in assay [4], in assay [5] and in assay [6] was above 100 µM in each case. Moreover, the TGI in assay [9], in assay [7] and in [8] was above 100 µM throughout.
For `O=C([CH-]C(=O)c1ccccc1)c1ccccc1.O=C([CH-]C(=O)c1ccccc1)c1ccccc1.[O]=[U+2]=[O]`, the GI50 in assay [1] is 3.79 µM; in assay [3] it was 2.78 µM; in [4], 2.9 µM; in assay [6], 4.01 µM; in assay [7], 3.49 µM; in assay [8], 2.77 µM. Further, the TGI in [1] is 15.6 µM; in assay [3], 11.1 µM; in [4] it was 6.18 µM; in assay [6] it was above 100 µM; in assay [7], 19.9 µM; in assay [8] it was 9.12 µM.
As to `O=[N+]([O-])c1ccc(C2=Nc3ccccc3SC(c3ccccc3)C2)cc1` (configuration not stated), the TGI in assay [1] amounted to 35.8 µM; in [2], 37.2 µM; in [3] it was 30.9 µM; in [5], 67.6 µM; in assay [7], 41.6 µM; in assay [8], 32.9 µM.
Turning to `CCCCC#CS(=O)(=O)C(F)(F)F`, the TGI in assay [1] was above 100 µM; in [2], above 100 µM; in assay [3], above 100 µM; in assay [4], above 84.4 µM; in assay [5], above 100 µM; in assay [6], above 100 µM. The TGI in assay [7] and in assay [8] was above 100 µM each time.
Turning to `C[C@]12CC[C@H](O)C=C1CC[C@@H]1[C@@H]2CC[C@]2(C)C(c3ccc(=O)oc3)CC[C@]12O` (some centres not stated), the TGI was found to be 0.0225 µM in assay [1]; 0.151 µM in assay [2]; 0.0803 µM in [3]; 0.0448 µM in assay [4]; 0.405 µM in [5]; 0.023 µM in assay [6]. The TGI in assay [7] worked out at 0.222 µM; in [8] it was 0.0163 µM.
Turning to `CC1(C)[C@@H](Cn2cnc3c(Cl)nc(N)nc32)CC[C@@]1(C)CO`, the TGI in assay [1], in assay [2], in assay [3], in assay [4], in assay [5] and in assay [9] was above 100 µM each time. Also, the values for the TGI in assay [7] and in assay [8] were above 100 µM and 47.3 µM, respectively.
Turning to `O=C(c1ccccc1)N1C(=S)N=C(Nc2ccccc2)C1=Nc1ccccc1`, the TGI in assay [1], in [2], in assay [3], in assay [5], in [6] and in [9] was above 100 µM throughout. Besides, the TGI in [7] and in assay [8] was above 100 µM each time.
